In patent US10940475B2, “Gradient-on-a-chip” (Purdue Research Foundation, priority 2017, dated 2021):
Where two headings read alike, the source gives them in different places.

Columns and labels:
[1] = test system: S2 cells; settings: four hours
Procedure: (§1) A NE-4000X dual syringe pump (New era pump systems Inc., Farmingdale, N.Y.) was exposed to UV overnight before the day of experiments. The flow rate was adjusted to 0.1 ml/h, and using a 60 ml syringe a continuous inflow of medium and H2O2 (250 μM) through the inlets was maintained. The second pump was connected to the outlet to remove the medium at 0.2 ml/h to avoid overflow of liquids in the cell culture aperture of the device. The flow rate for the outlet pump was twice that of the incoming flow rate to accommodate for the use of two inlets. The paper strip with cells in 2D or 3D culture was placed in the cell culture slot of the device and exposed to the ROS gradient for four hours.

[2] = test system: S2 cells; settings: for cells with γ-H2Ax staining: low ROS concentration tier, gradient from 250 μM H2O2, four hours
Procedure: Human mammary epithelial non-neoplastic S1 cells^17 [used between passages 52 to 60], preinvasive S2 cells^18 [used between passages 218+2 and 218+10] and invasive T4-2 cells^19 [used between passages 28+4 and 28+10] that belong to the HMT-3522 breast cancer progression series, were cultured in H-14 medium, i.e., Dulbecco modified Eagle medium (DMEM) (Invitrogen Inc., Carlsbad, Calif.) supplemented with additives, prolactin (30.3 IU/ml; Sigma-Aldrich, St Louis, Mo.), insulin (100 μg/ml; Sigma-Aldrich), hydrocortisone (0.5 mg/ml; BD Biosciences, San Jose, Calif.), beta-estradiol (2.67×10^−5 μg/ml; Sigma-Aldrich), selenium (2.6 μg/ml; BD Biosciences) and transferrin (20 mg/ml; Sigma-Aldrich)^20. The culture medium also included epithelial growth factor (EGF) (20 mg/ml; BD Biosciences) until day 6 of culture, after which EGF was omitted from the culture medium to ensure proliferation arrest in 3D culture. Cell culture was performed at 37° C. in a humidified environment with 5% carbon dioxide and the culture medium was changed every three days for the S1 cells and every two days for S2 and T4-2 cells. Seeding densities in 2D culture were 22600 cells/cm^2 for S1 cells and 11900 cells/cm^2 for S2 and T4-2 cells. In 3D culture seeding densities were 86300 cells/cm^2 for S1 cells in the presence of Engelbreth-Holm-S warm (EHS) mouse derived Matrigel (Corning Life Sciences, Tewksbury, Ma.) or within collagen-1 rich Collymer matrix (GeniPhys™, Zionsville, Ind.) and 43150 cells/cm^2 for S2 and T4-2 cells. […] Briefly, 42 μl of Matrigel per cm^2 was used for the drip method with cells in 150 μl of medium, dripped on the gel-coated surface, before adding another 150 μl of medium with 10% EHS gel drop-by-drop all over the culture surface five minutes later (in the end seeding involved 3.47×10^4S1 cells/cm^2 per 55 μl of Matrigel; 1.74×10^4S2 or T4-2 cells/cm^2 per 55 μl of Matrigel). Collymers were prepared at different degrees of stiffness based on the formula provided by the manufacturer. S1 cells were cultured in 800 Pa Collymers stiffness, S2 cells were cultured in 800 Pa and 1500 Pa Collymers stiffness and T4-2 cells were cultured in 1500 Collymers stiffness. For the S2 cells, since they are preinvasive and nodules are surrounded by a basement membrane, basement membrane formation inducer laminin 111 (Corning) was mixed at 76 μg/ml final concentration with Collymers. For the Collymers thin-embedded culture, the surface was coated with 14 μl/cm^2 of Collymers of the desired stiffness. Collymers become opaque when they form a gel by incubation five minutes at 37° C. Cells were mixed with Collymers at the following concentrations per surface of culture and Collymers volume units: 4500 cells/cm^2/μl for S1 cells and 2262 cells/cm^2/μl for S2 and T4-2 cells. Following centrifugation at 2950 g for five minutes, the cells needed for each culture surface were put in solution in 5 μl of H-14 medium. Then, the cell suspension was mixed with Collymers (55 μl/cm^2 of culture surface) by gentle pipetting before coating on the cell culture surface, drop-by-drop all over the surface, and spreading with the pipette tip to ensure even distribution over the culture surface. After incubation five minutes at 37° C., 500 μl medium was added on top of the Collymers-embedded cells.
Antibodies used included Anti-rabbit Caspase-3 (Cell Signaling Technologies, Boston, Mass. 1/400 dilution), AOP2 (Abcam, Cambridge, Mass.; 2 μg/ml) and γ-H2AX (Ser139; Millipore, clone JBW301, 3.3 μg/ml). […]

[3] = test system: S2 cells; settings: four hours; remark: listed apart in the source
Procedure: as §1
Nuclear circularity and nuclear area were measured using the ImageJ software by outlining the nuclear shape based on DAPI staining. The most circular nuclei are given a score of 1 (perfectly round nucleus). Nuclear area was measured in pixels and converted to μm^2 based on the spatial calibration table of ImageJ.

Compound: OO [ROS, hydrogen peroxide]
- oxidative DNA damage based on 8-OHdG expression ([1]; low ROS concentration tier, 2D and 3D Matrigel culture): did no show oxidative DNA damage
- 8-OHdG levels ([1]; medium and high ROS concentration tiers, 2D cell culture and 3D Matrigel cell culture): significant, but similar increase
- AOP2 response (nodules stained for AOP2) ([1]; regardless of the ROS levels): ~100%
- γ-H2AX response level of the cell population ([2]; high concentration tier, all culture conditions, four hours): around 40%
- cells with γ-H2Ax staining ([2]; 800 Pa Collymers): 20%
- cells with γ-H2Ax staining ([2]; 1500 Pa Collymers culture): less than 5%
- cells with γ-H2Ax staining ([2]; Matrigel culture): less than 5%
- cells with γ-H2Ax staining ([2]; cells cultured on paper (2D)): 20%
- nuclear area ([3]; ROS exposure regardless of the cell culture condition): increased
- nuclear circularity ([3]; with increasing ROS concentration tiers, all culture conditions): decreased
